Where a SMILES comes first, the peptide text is derived from it. The star is where a group is joined. Cbz = O=C(OCc1ccccc1)*
Columns and labels:
Format in all cases: cell-based
HCT116 cells [1] = assay: TMT labeling proteomics of HCT116 cells treated with MG132, CB-5083 or NMS-873; details: for Log2 FC Baculoviral IAP repeat-containing protein 5 (BIRC5) / Log2 FC Cell division cycle protein 20 homolog (CDC20) / Log2 FC F-box only protein 5 (FBXO5) / Log2 FC G1/S-specific cyclin-D1 (CCND1) / Log2 FC Geminin (GMNN) / Log2 FC M-phase inducer phosphatase 2 (CDC25B) / Log2 FC Mitotic checkpoint serine/threonine-protein kinase BUB1 (BUB1) / Log2 FC Myc proto-oncogene protein (MYC) / Log2 FC Origin recognition complex subunit 6 (ORC6) / Log2 FC Ribonucleoside-diphosphate reductase subunit M2 (RRM2) / Log2 FC Securin (PTTG1): compound vs DMSO
Procedure: HCT116 cells were treated with 1 μM MG132, 2 μM CB-5083 or 4 μM of NMS-874 for 6 h or 24 h, n=2. […] M, C and N represents MG132, CB-5083 and NMS-873, respectively.
As a step toward understanding the differential effects of inhibiting p97 and the proteasome in cancer treatment, the effect of inhibiting p97 was compared to proteasome inhibition using tandem mass tag (TMT) 16-plexed labelling. This technique allowed for capture of alterations in the proteome after exposure to MG132 (proteasome inhibitor) and p97 inhibitors (CB-5083 and NMS-873). […] Samples were pooled together, fractionated into 8 fractions using high pH reverse chromatography, and analyzed using the highly accurate RTS-SPS-MS3 method.

E2F1 = E2F1 reporter assay; details: HCT116 transfected with pGL2-AN plasmid, 8 h treatment, luminescence
Procedure: (§1) FIGS. 10A-10F depicts p97 inhibition impairs the transcriptional activity of E2F1 by downregulating the CCND1/CDK complex. […] Data was analyzed using the g:Profiler website. Shading indicates the gene is a potential target of transcription factor c-Myb or E2F1. Blank indicates it is not a target gene. FIG. 10B depicts known regulatory network of the CCND1/CDK/RB1/E2F1 pathway. […] HCT116 cells were treated with 1 μM MG132, 2 μM CB-5083 or 4 μM of NMS-874 for 6 h. FIGS. 10E and 10F show transcriptional activity of E2F1 measured using E2F1 reporter assay. HCT116 cells were transfected with pGL2-AN plasmid (Addgene: 20950) for 24 h. Then cells were plated in 384 well plate and incubated for 16 h. The luminescence were detected after 8 h treatment with MG132, CB-5083 or NMS-873. Data are shown as mean±SD, n=3. f, qRT-PCR analysis of ATF3, DHFR and CCND1 RNAs following treatment with MG132, CB-5083 or NMS-874. HCT116 cells were treated for 2, 6 and 24 h using the same concentration as proteomic and western blot assay (n=4).
(§2) To determine if the decreased expression of E2F1 target genes was caused by the downregulation of E2F1 levels due to ER stress, qPCR and western blot were used to evaluate E2F1 levels. […] The transcriptional activity of E2F1 can also be repressed through the formation of a complex with the tumor suppressor protein retinoblastoma (RB1) (FIG. 10B). […]

HCT116 cells [2] = assay: Western blot of E2F1 related proteins and phos-4EBP1
Procedure: FIGS. 9B-9C show network of E2F1 (FIG. 9B) and cMyb (FIG. 9C).
as §1
To investigate whether the protein translation was inhibited by p97 or proteasome inhibitor, the phosphorylation state of eukaryotic translation initiation factor 4E-binding protein 1 (4E-BP1) was examined. Phosphorylation of 4E-BP1 serves to increase total protein translation. […] The effect of p97 inhibition on specific protein levels arises from a change in transcript levels. To examine how transcript levels might be affected, potential transcription factor binding sites (TFBSs) in the promoters of these 33 genes in the TRANSFAC database were examined. […] By examining protein-protein interaction networks related to E2F1 and MYB in the STRING database, 11 E2F1 interactors were found (FIG. 9B) and 11 MYB interactors (FIG. 9C). […] Therefore it was determined to further investigate the role of E2F1, rather than MYB, in cells responding to p97 and proteasome inhibition.
It was hypothesized that CCND1 and CDK4/6 upregulation by MG132 promotes RB1 hyperphosphorylation.

HCT116 cells [3] = assay: qRT-PCR analysis of ATF3, DHFR and CCND1 RNAs; details: HCT116, qPCR
Procedure: as §1, §2

cyclin D1 = assay: Cyclin D1 level and degradation (co-treatment, CHX chase)
Procedure: FIGS. 12A-12C depicts Western blots detecting the effects of p97 inhibitors and MG132 on cell cycle proteins in HT29 and HCT116 cells. […] Then, 50 μM of CHX was added and cells were collected at 0 h, 0.5 h, and 1 h. FIG. 12C depicts half-life of cyclin D1 in HCT116 cells. HCT116 cells were pre-treated with 5 μM of CB-5083 or DMSO for 30 minutes before adding 50 μM of CHX, and cells were collected at 0, 10, 20, 30 min (n=3), * indicates p<0.05 according to unpaired t-test.
The concentration of MG132, CB-5083 and Baf A1 was 1 μM, 2 μM and 10 μM, respectively. […] FIGS. 13D-13E depict the half-life of Securin in HCT116 cells. HCT116 cells were treated with 1 μM of MG132, 2 μM of CB-5083, 1 μM of MG132 plus 2 μM of CB-5083 or DMSO. […] Cells were pretreated with […] for 1 h. […] For FIGS. 13B-13G, D, B, M, C and N represents DMSO, Baf A1, MG132, CB-5083 and NMS-873, respectively. Data are shown as mean±SD. Statistical analysis was performed using one-way ANOVA.
Cells were co-treated with CB-5083 and either the proteasome inhibitor MG132 or the autophagy inhibitor Bafilomycin A1 (Baf A1).

## CC(C)C[C@@H](C=O)NC(=O)[C@H](CC(C)C)NC(=O)[C@H](CC(C)C)NC(=O)OCc1ccccc1 [MG132] (Cbz-Leu-Leu-Leu-aldehyde)
HCT116 cells [1]; HCT116, 6 h and 24 h
  TAX1BP1 and p62 protein levels: upregulated
HCT116 cells [1]; HCT116, 6 h treatment
  Log2 FC Baculoviral IAP repeat-containing protein 5 (BIRC5): 0.6
  Log2 FC Cell division cycle protein 20 homolog (CDC20): 0.8
  Log2 FC F-box only protein 5 (FBXO5): 0.2
  Log2 FC G1/S-specific cyclin-D1 (CCND1): 0.2
  Log2 FC Geminin (GMNN): 0.9
  Log2 FC M-phase inducer phosphatase 2 (CDC25B): 0.3
  Log2 FC Mitotic checkpoint serine/threonine-protein kinase BUB1 (BUB1): 1.2
  Log2 FC Myc proto-oncogene protein (MYC): 1.2
  Log2 FC Origin recognition complex subunit 6 (ORC6): 0.3
  Log2 FC Ribonucleoside-diphosphate reductase subunit M2 (RRM2): 0.6
  Log2 FC Securin (PTTG1): 1.4
HCT116 cells [1]; HCT116, 24 h of treatment, p<0.05
  Four XBP1 activated genes/proteins (DNAJB11, SRPR, SRPRB, SYVN1), Log2FC: not
HCT116 cells [1]; HCT116, 24 h treatment
  Log2 FC Baculoviral IAP repeat-containing protein 5 (BIRC5): 1.0
  Log2 FC Cell division cycle protein 20 homolog (CDC20): 1.1
  Log2 FC F-box only protein 5 (FBXO5): 1.5
  Log2 FC G1/S-specific cyclin-D1 (CCND1): 0.4
  Log2 FC Geminin (GMNN): 1.4
  Log2 FC M-phase inducer phosphatase 2 (CDC25B): −0.2
  Log2 FC Mitotic checkpoint serine/threonine-protein kinase BUB1 (BUB1): 1.4
  Log2 FC Myc proto-oncogene protein (MYC): 0.2
  Log2 FC Origin recognition complex subunit 6 (ORC6): 1.0
  Log2 FC Ribonucleoside-diphosphate reductase subunit M2 (RRM2): 1.2
  Log2 FC Securin (PTTG1): −0.1
HCT116 cells [1]; HCT116, proteomic analysis (TMT)
  CCND1 (cyclin D1) and CDK4/6 protein levels: upregulated
E2F1
  Transcriptional activity of E2F1: reduce the transcriptional activity of E2F1
HCT116 cells [2]; HCT116, 6 h, western blot
  Phosphorylation of RB1: reduced phosphorylation of RB1
HCT116 cells [2]; HCT116, 6 h of treatments
  Global protein translation (phosphorylation state of 4E-BP1): inhibit global protein translation
HCT116 cells [2]; HCT116, TMT and western blot
  p21 (CDKN1A) level: significantly upregulated
HCT116 cells [3]
  mRNA levels of the E2F1 target gene DHFR: reducing the mRNA level of DHFR
Cyclin D1; HCT116, 50 μM CHX
  Cyclin D1 turnover in cytosol and nucleus: blocked
Cyclin D1; HCT116, 6 hours, MG132 1 μM, CB-5083 2 μM, Baf A1 10 μM
  Effect on CB-5083 mediated cyclin D1 downregulation (co-treatment): rescued CB-5083 mediated cyclin D1 downregulation at the protein level but not at the mRNA level
